Where two headings read alike, the source gives them in different places.
Target: T1, MEK1 (Homo sapiens, UniProt Q02750)
T1 construct: purchased Millipore 14-420 (GST-MEK1); 14-703 (Cot1); host or cells: Cot1: insect cells (SF21)
Assay: MEK1 activation kinase assay (Assay 2, HTRF; Cot1 phosphorylates GST-MEK1)
Assay type: biochemical
Procedure: MEK1 Activation Kinase Assay
The kinase Cot1 activates MEK1 by phosphorylating its activation loop. The inhibitory activity of compounds of the present invention on this activation of MEK1 was quantified employing the HTRF assay described in the following paragraphs.
As substrate for the kinase reaction the unactive C-terminally His6-tagged GST-MEK1 fusion protein (Millipore cat. no 14-420) was used.
Then the kinase reaction was started by the addition of 2 μl of a solution of Cot1 in assay buffer and the resulting mixture was incubated for a reaction time of 20 min at 22° C. The concentration of Cot1 in the assay was adjusted depending of the activity of the enzyme lot and was chosen appropriate to have the assay in the linear range, typical enzyme concentrations were in the range of about 2 ng/μl (final conc. in the 5 μl assay volume).
The resulting mixture was incubated 2 h at 22° C. to allow the binding of the phosphorylated GST-MEK1 to the anti-GST-XL665 and the Eu-cryptate labelled anti-phospho-MEK 1/2 antibody. Subsequently the amount of Ser217/Ser221-phosphorylated substrate was evaluated by measurement of the resonance energy transfer from the Eu-Cryptate-labelled anti-phospho-MEK antibody to the anti-GST-XL665.

[1] = mean values from 2 or more measurements, read-out: Assay 2 IC50 values (nanomolar) (MEK1 activation kinase assay) (values are mean values from 2 or more measurements)
[2] = representative example compounds, read-out: IC50 in MEK1 activation kinase assay

T1 sequence (Q02750 whole entry): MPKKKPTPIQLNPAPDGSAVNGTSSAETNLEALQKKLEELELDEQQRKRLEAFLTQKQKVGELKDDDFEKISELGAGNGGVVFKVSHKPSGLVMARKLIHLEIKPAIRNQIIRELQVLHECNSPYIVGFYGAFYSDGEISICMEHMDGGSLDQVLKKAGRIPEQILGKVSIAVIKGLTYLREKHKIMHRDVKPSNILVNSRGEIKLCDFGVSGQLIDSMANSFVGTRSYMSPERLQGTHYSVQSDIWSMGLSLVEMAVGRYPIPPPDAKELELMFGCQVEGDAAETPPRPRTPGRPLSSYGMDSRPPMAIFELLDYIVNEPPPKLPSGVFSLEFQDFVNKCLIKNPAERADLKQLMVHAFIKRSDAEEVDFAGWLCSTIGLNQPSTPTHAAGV

Compound	IC50 [1] [nM]	IC50 [2] [nM]	IC50 (IC50 in MEK1 activation kinase assay, representative example compounds) [nM]
NC(=O)c1c(Nc2ccc(I)cc2F)cc(F)cc1Oc1cccc(NC(=O)c2ccon2)c1 [Example 5.84, Isoxazole-3-carboxylic acid {3-[2-carbamoyl-5-fluoro-3-(2-fluoro-4-iodo-phenylamino)-phenoxy]-phenyl}-amide]	75.4	–	–
NC(=O)c1cccc(Oc2cc(F)cc(Nc3ccc(I)cc3F)c2C(N)=O)c1 [Example 4.37, 2-(3-Carbamoyl-phenoxy)-4-fluoro-6-(2-fluoro-4-iodo-phenylamino)-benzamide]	26.6	< 1000	–
CCCNS(=O)(=O)Nc1cccc(Oc2cc(F)cc(Nc3ccc(I)cc3F)c2C(N)=O)c1 [Example 5.2, 2-[3-[[(propylamino)sulfonyl]amino]phenoxy]-4-fluoro-6-[(2-fluoro-4-iodophenyl)amino]-benzamide]	24	–	–
C[C@H](CO)NC(=O)c1c(Nc2ccc(I)cc2F)cc(F)cc1Oc1cccc(NS(=O)(=O)N(C)C)c1 [Example 4.20, 2-[3-[[(dimethylamino)sulfonyl]amino]phenoxy]--4-fluoro-6-[(2-fluoro-4-iodophenyl)amino]-N-((R)-2-hydroxy-1-methyl-ethyl)-benzamide]	89.3	–	–
CN(C)C(=O)N1CCN(CCOc2cc(F)cc(Nc3ccc(I)cc3F)c2C(N)=O)CC1 [Example 5.30, 4-{2-[2-Carbamoyl-5-fluoro-3-(2-fluoro-4-iodo-phenylamino)-phenoxy]-ethyl}-piperazine-1-carboxylic acid dimethylamide]	138	–	–
NC(=O)c1c(Nc2ccc(I)cc2F)cc(F)cc1Oc1cccc(NS(=O)(=O)C2CCCC2)c1 [Example 5.37, 2-(3- Cyclopentanesulfonylamino-phenoxy)-4-fluoro-6-(2-fluoro-4-iodo-phenylamino)-benzamide]	20.4	–	–
NC(=O)c1c(Nc2ccc(I)cc2F)cc(F)cc1Oc1cccc(NC(=O)c2cn[nH]c2)c1 [Example 5.79, 1H-Pyrazole-4-carboxylic acid {3-[2-carbamoyl-5-fluoro-3-(2-fluoro-4-iodo-phenylamino)-phenoxy]-phenyl}-amide]	77.8	–	–
NC(=O)c1c(Nc2ccc(I)cc2F)cc(F)cc1Oc1cccc(NC(=O)c2csnn2)c1 [Example 5.76, [1,2,3]Thiadiazole-4-carboxylic acid {3-[2-carbamoyl-5-fluoro-3-(2-fluoro-4-iodo-phenylamino)-phenoxy]-phenyl}-amide]	70.3	–	–
NC(=O)c1c(Nc2ccc(I)cc2F)cc(F)cc1Oc1cccc(NC(=O)C2CCC2)c1 [Example 5.80, 2-[3-(Cyclo-butanecarbonyl-amino)-phenoxy]-4-fluoro-6-(2-fluoro-4-iodo-phenylamino)-benzamide]	137	–	–
CCS(=O)(=O)N1CCC[C@@H]1COc1cc(F)cc(Nc2ccc(I)cc2F)c1C(N)=O [Example 5.33, 2-((R)-1-Ethanesulfonyl-pyrrolidin-2-ylmethoxy)-4-fluoro-6-(2-fluoro-4-iodo-phenylamino)-benzamide]	91.6	–	–
NC(=O)c1c(Nc2ccc(I)cc2F)cc(F)cc1Oc1cccc(C(=O)O)c1 [Example 10.7, 3-[2-Carbamoyl-5-fluoro-3-(2-fluoro-4-iodo-phenylamino)-phenoxy]-benzoic acid]	33.2	< 1000	–
CC(C)(O)C(O)CCOc1cc(F)cc(Nc2ccc(I)cc2F)c1C(N)=O (single isomer, unassigned) [Example 6.3, 2-(3,4-Dihydroxy-4-methyl-pentyloxy)-4-fluoro-6-(2-fluoro-4-iodo-phenylamino)-benzamide]	30.6	–	–
CN(C)S(=O)(=O)NCc1cccc(Oc2cc(F)cc(Nc3ccc(I)cc3F)c2C(N)=O)c1 [Example 5.67, 6-[3-(dimethyl-aminosulfonylamino-methyl)-phenoxy]-4-fluoro-2-(2-fluoro-4-iodo-phenylamino)-6-benzamide]	63.4	–	–
CNS(=O)(=O)Nc1cccc(Oc2cc(F)cc(Nc3ccc(I)cc3F)c2C(N)=O)c1 [Example 5.41, 2-[3-[[(methylamino)sulfonyl]amino]phenoxy]-4-fluoro-6-[(2-fluoro-4-iodophenyl)amino]-benzamide]	22.2	–	< 1000
CC(=O)NCc1cccc(Oc2cc(F)cc(Nc3ccc(I)cc3F)c2C(N)=O)c1 [Example 5.69, 2-[3-(Acetylamino-methyl)-phenoxy]-4-fluoro-6-(2-fluoro-4-iodo-phenylamino)-benzamide]	18.3	–	–
C[C@@H](O)CNC(=O)c1c(Nc2ccc(I)cc2F)cc(F)cc1Oc1cccc(NS(=O)(=O)N(C)C)c1 [Example 4.22, 2-[3-[[(dimethylamino)sulfonyl]amino]phenoxy]--4-fluoro-6-[(2-fluoro-4-iodophenyl)amino]-N-((R)-2-hydroxy-propyl)-benzamide]	163	–	–
NC(=O)c1c(Nc2ccc(I)cc2F)cc(F)cc1Oc1cccc(NS(=O)(=O)N2CCOCC2)c1 [Example 5.24, 4-Fluoro-2-(2-fluoro-4-iodo-phenylamino)-6-[3-(morpholine-4-sulfonylamino)-phenoxy]-benzamide]	25.9	< 1000	–
CC(=O)Nc1ccc(Oc2cc(F)cc(Nc3ccc(I)cc3F)c2C(N)=O)cc1 [Example 4.5, 2-(4-Acetylamino-phenoxy)-4-fluoro-6-(2-fluoro-4-iodo-phenylamino)-benzamide]	–	< 1000	–
CC(=O)Nc1cccc(Oc2cc(F)cc(Nc3ccc(I)cc3F)c2C(N)=O)c1 [Example 5.3, 2-(3-Acetylamino-phenoxy)-4-fluoro-6-(2-fluoro-4-iodo-phenylamino)-benzamide]	28.1	< 1000	–
CS(=O)(=O)Cc1cccc(Oc2cc(F)cc(Nc3ccc(I)cc3F)c2C(N)=O)c1 [Example 4.34, 4-Fluoro-2-(2-fluoro-4-iodo-phenylamino)-6-(3-methane-sulfonylmethyl-phenoxy)-benzamide]	23.5	< 1000	–
NC(=O)c1c(Nc2ccc(I)cc2F)cc(F)cc1Oc1cccc(NC(=O)c2ccsc2)c1 [Example 5.75, Thiophene-3-carboxylic acid {3-[2-carbamoyl-5-fluoro-3-(2-fluoro-4-iodo-phenylamino)-phenoxy]-phenyl}-amide]	103	–	–
NC(=O)c1c(Nc2ccc(I)cc2F)cc(F)cc1Oc1cccc(NC(=O)c2ccoc2)c1 [Example 5.77, Furan-3-carboxylic acid {3-[2-carbamoyl-5-fluoro-3-(2-fluoro-4-iodo-phenylamino)-phenoxy]-phenyl}-amide]	127	–	–
CN(C)S(=O)(=O)Nc1cccc(Oc2cc(F)cc(Nc3ccc(I)cc3)c2C(N)=O)c1 [Example 2.16, 2-{3-[(dimethylsulfamoyl)amino]phenoxy}-4-fluoro-6-[(4-iodophenyl)amino] benzamide]	47.3	< 1000	–
CNC(=O)c1c(Nc2ccc(I)cc2F)cc(F)cc1Oc1cccc(NS(=O)(=O)N(C)C)c1 [Example 4.17, 2-[3-[[(dimethylamino)sulfonyl]amino]phenoxy]--4-fluoro-6-[(2-fluoro-4-iodophenyl)amino]-N-methyl-benzamide]	61.3	–	–
CN(C)S(=O)(=O)Nc1cccc(Oc2cc(F)cc(Nc3ccc(I)cc3F)c2C(N)=O)c1 [Example 2.1, 2-[3-[[(dimethylamino)sulfonyl]amino]phenoxy]-4-fluoro-6-[(2-fluoro-4-iodophenyl)amino]-benzamide]	21.8	–	–
